# Source: US9358233B2, “Method for treating acute myeloid leukemia” (priority 2010, dated 2016)
# Test system: patients with relapsed/refractory AML
# Assay: Clinical trial of BI 6727 in combination with LD-Ara-C in AML patients
# Assay type: in vivo
# Method: BI 6727 (350 mg) was administered as a one-hour intravenous infusion on Days 1+15 every 28 days in combination with fixed dose LD-Ara-C (low-dose cytarabine) (20 mg twice daily s.c. [subcutaneous]). The starting dose of BI 6727 was based on the MTD previously determined in solid tumor patients. Patients with no progression after the first cycle were allowed to continue treatment.
# [1] = preliminary, 32 patients with relapsed/refractory AML, different BI 6727 doses in combination with LD-Ara-C
compound,measurement,setting,value
"CC[C@@H]1C(=O)N(C)c2cnc(Nc3ccc(C(=O)N[C@H]4CC[C@H](N5CCN(CC6CC6)CC5)CC4)cc3OC)nc2N1C(C)C [BI 6727, N-[trans-4-[4-(cyclopropylmethyl)-1-piperazinyl]cyclohexyl]-4-[[(7R)-7-ethyl-5,6,7,8-tetrahydro-5-methyl-8-(1-methylethyl)-6-oxo-2-pteridinyl]amino]-3-methoxy-benzamide]",MTD,BI 6727 d1+15q28d in combination with LD-Ara-C,350 mg
same,DLTs as rated per protocol (kind),"human, in vivo","pneumonia, mucositis, hypersensitivity/allergic reaction and myocardial infarction"
same,"Dose-limiting toxicities (DLTs), number of patients","human, in vivo",four
same,Clinical activity,"in combination with LD-Ara-C, AML patients",showed first signs of clinical activity
same,"Best response: incomplete blood count recovery (CRi) or complete remission (CR), number of patients",[1],seven
same,"Best response: partial remission, number of patients",[1],1 patients
same,"Best response: temporarily stable blood values (""no change""), number of patients",[1],Six
same,"Progression during or at the end of the first-treatment cycle, number of patients",[1],Eleven
